pIC50: −log10 of the molar value.
Target: T1, full-length human GST-tagged PRMT1 (Homo sapiens, UniProt Q99873)
T1 construct: GST-tagged PRMT1; made in house; host or cells: High Five insect cells (baculovirus, pFastBacI)
Assay: PRMT1 Biochemical Assay (3H-SAM Flashplate, histone H4 peptide substrate)
From the text: General Materials. S-adenosylmethionine (SAM), S-adenosylhomocysteine (SAH), bicine, Tween20, dimethylsulfoxide (DMSO), bovine skin gelatin (BSG), and Tris(2-carboxyethyl)phosphine hydrochloride solution (TCEP) were purchased from Sigma-Aldrich at the highest level of purity possible. ^3H-SAM was purchase from American Radiolabeled Chemicals with a specific activity of 80 Ci/mmol. 384-well streptavidin Flashplates were purchased from PerkinElmer.
Protein Expression. Recombinant baculovirus were generated according to Bac-to-Bac kit instructions (Life Technologies). Protein over-expression was accomplished by infecting exponentially growing High Five insect cell culture at 1.5×10^6cell/ml with 1:100 ratio of virus. Infections were carried out at 27° C. for 48 hours, harvested by centrifugation, and stored at −80° C. for purification.
Protein Purification. […] GST-tagged PRMT1 was eluted with 50 mM Tris, 2 mM glutathione, pH 7.8, dialysed in buffer A and concentrated to 1 mg/mL.
General Procedure for PRMT1 Enzyme Assays on Peptide Substrates. The assays were all performed in a buffer consisting of 20 mM Bicine (pH=7.6), 1 mM TCEP, 0.005% BSG, and 0.002% Tween 20, prepared on the day of use. […] DMSO (1 ul) was added to Columns 11, 12, 23, 24, rows A-H for the maximum signal control and 1 ul of SAH, a known product and inhibitor of PRMT1, was added to columns 11, 12, 23, 24, rows I-P for the minimum signal control. A cocktail (40 ul) containing the PRMT1 enzyme was added by Multidrop Combi (Thermo-Fisher). The compounds were allowed to incubate with PRMT1 for 30 min at room temperature, then a cocktail (10 ul) containing SAM and peptide was added to initiate the reaction (final volume=51 ul). […] The assays were stopped by the addition of non-radiolabeled SAM (10 ul) to a final concentration of 300 uM, which dilutes the ^3H-SAM to a level where its incorporation into the peptide substrate is no longer detectable. 50 ul of the reaction in the 384-well polypropylene plate was then transferred to a 384-well Flashplate and the biotinylated peptides were allowed to bind to the streptavidin surface for at least 1 hour before being washed once with 0.1% Tween20 in a Biotek ELx405 plate washer. The plates were then read in a PerkinElmer TopCount plate reader to measure the quantity of ^3H-labeled peptide bound to the Flashplate surface, measured as disintegrations per minute (dpm) or alternatively, referred to as counts per minute (cpm).
Where dpm=disintegrations per minute, cmpd=signal in assay well, and min and max are the respective minimum and maximum signal controls.
Where top and bottom are the normally allowed to float, but may be fixed at 100 or 0 respectively in a 3-parameter fit. The Hill Coefficient normally allowed to float but may also be fixed at 1 in a 3-parameter fit. Y is the % inhibition and X is the compound concentration.

T1 sequence (Q99873 with tags, fused parts or gaps): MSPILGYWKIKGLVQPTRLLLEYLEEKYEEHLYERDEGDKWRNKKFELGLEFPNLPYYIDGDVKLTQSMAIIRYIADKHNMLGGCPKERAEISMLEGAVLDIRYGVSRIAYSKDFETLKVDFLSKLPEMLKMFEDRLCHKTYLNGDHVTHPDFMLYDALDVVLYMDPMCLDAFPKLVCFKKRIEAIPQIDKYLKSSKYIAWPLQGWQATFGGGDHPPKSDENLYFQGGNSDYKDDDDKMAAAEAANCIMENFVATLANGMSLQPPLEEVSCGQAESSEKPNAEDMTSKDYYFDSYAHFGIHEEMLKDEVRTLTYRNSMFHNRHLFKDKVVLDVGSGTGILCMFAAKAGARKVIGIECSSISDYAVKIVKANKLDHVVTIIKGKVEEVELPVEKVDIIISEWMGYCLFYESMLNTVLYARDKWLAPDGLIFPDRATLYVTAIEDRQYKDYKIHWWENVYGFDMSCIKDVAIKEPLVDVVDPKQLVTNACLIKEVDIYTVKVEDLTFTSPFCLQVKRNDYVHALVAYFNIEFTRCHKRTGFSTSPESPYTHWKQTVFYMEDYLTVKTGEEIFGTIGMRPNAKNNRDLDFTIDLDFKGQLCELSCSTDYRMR

Structure (SMILES) | pIC50
CNCCN(C)Cc1c[nH]nc1-c1cccc(C(F)(F)F)c1 [Compound 1] | 6.00 to 7.00
CN(CCN)Cc1c[nH]nc1-c1cc(C(F)(F)F)cc(C(F)(F)F)c1 [Compound 2] | 6.00 to 7.00
CN(CCN)Cc1c[nH]nc1-c1ccc(Cl)c(C(F)(F)F)c1 [Compound 3] | > 7.00
CN(CCN)Cc1c[nH]nc1-c1ccc(F)c(C(F)(F)F)c1 [Compound 4] | > 7.00
CC(C)Oc1ccc(-c2n[nH]cc2CN(C)CCN)cc1C(F)(F)F [Compound 5] | > 7.00
CC(C)Oc1cc(-c2n[nH]cc2CN(C)CCN)cc(C(F)(F)F)c1 [Compound 6] | > 7.00
CN(CCN)Cc1n[nH]cc1-c1cc(C(F)(F)F)cc(C(F)(F)F)c1 [Compound 7] | 5.52 to 6.00
CC(C)Oc1ccc(-c2c[nH]nc2CN(C)CCN)cc1C(F)(F)F [Compound 8] | > 7.00
CNCCN(C)Cc1c[nH]nc1-c1ccc(OCCC(C)C)c(C(F)(F)F)c1 [Compound 9] | > 7.00
CNCCN(C)Cc1c[nH]nc1-c1ccc(OCC(C)C)c(C(F)(F)F)c1 [Compound 10] | > 7.00
CCCOc1ccc(-c2n[nH]cc2CN(C)CCNC)cc1C(F)(F)F [Compound 11] | > 7.00
CNCCN(C)Cc1c[nH]nc1-c1cc(OCCC(C)C)cc(C(F)(F)F)c1 [Compound 12] | > 7.00
CNCCN(C)Cc1c[nH]nc1-c1ccc(OCCCOC)c(C(F)(F)F)c1 [Compound 13] | > 7.00
CNCCN(C)Cc1c[nH]nc1-c1ccc(OCCOC)c(C(F)(F)F)c1 [Compound 14] | > 7.00
CNCCN(C)Cc1c[nH]nc1-c1cc(OCC(C)C)cc(C(F)(F)F)c1 [Compound 15] | > 7.00
CNCCN(C)Cc1c[nH]nc1-c1cc(OCCOC)cc(C(F)(F)F)c1 [Compound 16] | > 7.00
CNCCN(C)Cc1n[nH]cc1-c1ccc(OCCC(C)C)c(C(F)(F)F)c1 [Compound 17] | > 7.00
CNCCN(C)Cc1n[nH]cc1-c1ccc(OCC(C)C)c(C(F)(F)F)c1 [Compound 18] | > 7.00
CCCOc1cc(-c2n[nH]cc2CN(C)CCNC)cc(C(F)(F)F)c1 [Compound 19] | > 7.00
CNCCN(C)Cc1n[nH]cc1-c1ccc(OCCCOC)c(C(F)(F)F)c1 [Compound 20] | > 7.00
CNCCN(C)Cc1n[nH]cc1-c1ccc(OCCOC)c(C(F)(F)F)c1 [Compound 21] | > 7.00
CNCCN(C)Cc1n[nH]cc1-c1cc(OCCC(C)C)cc(C(F)(F)F)c1 [Compound 22] | > 7.00

Structure (SMILES) | pIC50
CN(CCN)Cc1c[nH]nc1-c1ccc(Oc2ccccc2)c(C(F)(F)F)c1 [Compound 23] | > 7.00
CNCCN(C)Cc1c[nH]nc1-c1cc(OCCCOC)cc(C(F)(F)F)c1 [Compound 24] | > 7.00
CNCCN(C)Cc1c[nH]nc1-c1cc(Cl)c(OC(C)C)c(C(F)(F)F)c1 [Compound 25] | > 7.00
CN(CCN)Cc1n[nH]cc1-c1ccc(Oc2ccccc2)c(C(F)(F)F)c1 [Compound 26] | > 7.00
CNCCN(C)Cc1n[nH]cc1-c1cc(OCCCOC)cc(C(F)(F)F)c1 [Compound 27] | 6.00 to 7.00
CCCOc1ccc(-c2c[nH]nc2CN(C)CCNC)cc1C(F)(F)F [Compound 28] | > 7.00
CNCCN(C)Cc1n[nH]cc1-c1cc(OCC(C)C)cc(C(F)(F)F)c1 [Compound 29] | > 7.00
CNCCN(C)Cc1n[nH]cc1-c1cc(OCCOC)cc(C(F)(F)F)c1 [Compound 30] | 6.00 to 7.00
CCCOc1cc(-c2c[nH]nc2CN(C)CCNC)cc(C(F)(F)F)c1 [Compound 31] | 6.00 to 7.00
CNCCN(C)Cc1n[nH]cc1-c1cc(C(O)C(C)C)cc(C(F)(F)F)c1 (stereo not shown) [Compound 32] | 5.52 to 6.00
CNCCN(C)Cc1n[nH]cc1-c1cc(Cl)c(OC(C)C)c(C(F)(F)F)c1 [Compound 33] | > 7.00
CNCCN(C)Cc1c[nH]nc1-c1ccc(CC(C)C)c(C(F)(F)F)c1 [Compound 34] | > 7.00
CNCCN(C)Cc1c[nH]nc1-c1cc(Cl)c(OCC2CCC2)c(C(F)(F)F)c1 [Compound 35] | > 7.00
CNCCN(C)Cc1c[nH]nc1-c1cc(Oc2ccccc2)cc(C(F)(F)F)c1 [Compound 36] | > 7.00
CNCCN(C)Cc1c[nH]nc1-c1cc(OCc2ccccc2)cc(C(F)(F)F)c1 [Compound 37] | > 7.00
CNCCN(C)Cc1c[nH]nc1-c1cc(Oc2ccncc2)cc(C(F)(F)F)c1 [Compound 38] | 6.00 to 7.00
CNCCN(C)Cc1c[nH]nc1-c1cc(OC2CCCCC2)cc(C(F)(F)F)c1 [Compound 39] | > 7.00
CC(C)CCOc1cc(-c2n[nH]cc2CN(C)CCN)cc(C(F)(F)F)c1Cl [Compound 40] | 6.00 to 7.00
CNCCN(C)Cc1c[nH]nc1-c1cc(Cl)c(OCC2CC2)c(C(F)(F)F)c1 [Compound 41] | > 7.00
CNCCN(C)Cc1c[nH]nc1-c1cc(OCC2CCC2)cc(C(F)(F)F)c1 [Compound 44] | > 7.00
CNCCN(C)Cc1c[nH]nc1-c1cc(OCC2CCCC2)cc(C(F)(F)F)c1 [Compound 45] | > 7.00
CNCCN(C)Cc1c[nH]nc1-c1cc(OCC2CCOCC2)cc(C(F)(F)F)c1 [Compound 46] | > 7.00

Structure (SMILES) | pIC50
CCC(CC)Oc1cc(-c2n[nH]cc2CN(C)CCNC)cc(C(F)(F)F)c1 [Compound 47] | > 7.00
CNCCN(C)Cc1c[nH]nc1-c1cc(OCCCC(F)(F)F)cc(C(F)(F)F)c1 [Compound 48] | > 7.00
CNCCN(C)Cc1c[nH]nc1-c1cc(OCCCC(C)=O)cc(C(F)(F)F)c1 [Compound 49] | > 7.00
CNCCN(C)Cc1c[nH]nc1-c1cc(OCCc2ccccc2OC)cc(C(F)(F)F)c1 [Compound 50] | > 7.00
CNCCN(C)Cc1c[nH]nc1-c1cc(Oc2cccnc2)cc(C(F)(F)F)c1 [Compound 51] | > 7.00
CNCCN(C)Cc1c[nH]nc1-c1cc(Oc2ccccn2)cc(C(F)(F)F)c1 [Compound 52] | > 7.00
CNCCN(C)Cc1c[nH]nc1-c1cc(Oc2cncnc2)cc(C(F)(F)F)c1 [Compound 53] | 6.00 to 7.00
CNCCN(C)Cc1c[nH]nc1-c1cc(OCCC(C)C)c(Cl)c(C(F)(F)F)c1 [Compound 54] | 6.00 to 7.00
CNCCN(C)Cc1c[nH]nc1-c1cc(OCCOC)c(Cl)c(C(F)(F)F)c1 [Compound 55] | 6.00 to 7.00
COCCOc1cc(-c2n[nH]cc2CN(C)CCN)cc(C(F)(F)F)c1Cl [Compound 56] | 6.00 to 7.00
CNCCN(C)Cc1c[nH]nc1-c1cc(OCCCOC)c(Cl)c(C(F)(F)F)c1 [Compound 57] | > 7.00
CNCCN(C)Cc1c[nH]nc1-c1cc(C)c(OCC2CCC2)c(C(F)(F)F)c1 [Compound 58] | > 7.00
CNCCN(C)Cc1c[nH]nc1-c1cc(C)c(OC2CCOCC2)c(C(F)(F)F)c1 [Compound 59] | > 7.00
CNCCN(C)Cc1c[nH]nc1-c1cc(OCC(F)(F)F)cc(C(F)(F)F)c1 [Compound 60] | > 7.00
CNCCN(C)Cc1c[nH]nc1-c1cc(OCCCC(=O)OC)cc(C(F)(F)F)c1 [Compound 61] | > 7.00
CNCCN(C)Cc1c[nH]nc1-c1cc(CCC(C)C)cc(C(F)(F)F)c1 [Compound 62] | > 7.00
CC(C)CCc1cc(-c2n[nH]cc2CN(C)CCN)cc(C(F)(F)F)c1 [Compound 63] | > 7.00
CNCCN(C)Cc1c[nH]nc1-c1cc(OCCOC)c(F)c(C(F)(F)F)c1 [Compound 64] | > 7.00
CNCCN(C)Cc1c[nH]nc1-c1cc(C)c(OCC2CCOCC2)c(C(F)(F)F)c1 [Compound 65] | > 7.00
CNCCN(C)Cc1c[nH]nc1-c1cc(C)c(OC2COC2)c(C(F)(F)F)c1 [Compound 66] | > 7.00

From patent US8952026B2, “PRMT1 inhibitors and uses thereof” (Epizyme, Inc., priority 2013, dated 2015)
